Reference: the Biogen ADME set (Fang et al. 2023)
In brackets after ≈: the same amount, converted by molar mass.

Conditions: for aqueous solubility: pH 6.8

Row | MDR1-MDCK efflux ratio | fraction unbound, human plasma | fraction unbound, rat plasma | intrinsic clearance, human liver microsomes [mL/min/kg] | intrinsic clearance, rat liver microsomes [mL/min/kg] | aqueous solubility [µg/mL] | SMILES
1 | 27.5 | 0.449 | 0.379 | 16.2 | 122 |  | Cc1ncc(CN2CCC(Nc3ccc4nnnn4n3)C(C)C2)s1 (stereo not given)
2 | 0.459 |  |  |  |  | 0.19 (≈ 0.549 µM) | COc1ccc(-c2cnn3c(N)c(-c4ccccc4)cnc23)cc1OC
3 |  |  |  |  |  | 29.9 (≈ 61.6 µM) | Nc1nc(NCCNc2ncc(-c3ncc[nH]3)c(-c3ccc(Cl)cc3Cl)n2)ccc1[N+](=O)[O-]
4 | 0.641 |  |  | 20.9 | 133 | 34.8 (≈ 140 µM) | O=C(Cc1cccs1)NCc1ccccc1F
5 | 0.768 |  |  | ≤ 4.74 | 63.1 | 17.9 (≈ 81.2 µM) | CC(C)c1nnc(NCc2ccn(C)c2)o1
6 | 0.578 |  |  | 11.8 | 546 | 45.8 (≈ 174 µM) | Cc1csc(CN(C)c2ccnc(N(C)C)n2)n1
7 | 0.818 |  |  | 33.7 | 342 | 52.3 (≈ 168 µM) | COc1cccc(CC(=O)Nc2ccc3nc(C)sc3c2)c1
8 | 0.708 |  |  | 108 | 1010 | 4.06 (≈ 16.5 µM) | CNC(=O)Cc1csc(-c2ccc(C)cc2)n1
9 |  |  |  | 65.7 | 661 |  | Cc1ncsc1-c1nc(CNc2cc(F)cc(F)c2)no1
10 | 20.3 |  |  | 7.62 | 191 |  | Cc1c[nH]c(C(=O)NCC2(N3CCCCC3)CCCC2)n1
11 | 2.8 |  |  | 85.2 | 44.9 |  | COCC(=O)Nc1ccc(C)c(NC(=O)[C@H](OC)c2ccccc2)c1
12 | 18.9 |  |  | ≤ 4.74 | 14.3 | 58.2 (≈ 174 µM) | Cc1nn(C)c(C)c1NC(=O)CN1CCN(c2nccs2)CC1
13 | 43.2 |  |  | ≤ 4.74 | ≤ 10.7 | 56.7 (≈ 173 µM) | O=C(Nn1cnc2ccccc21)c1c2c(nc3ccccc13)CCC2
14 | 1.9 |  |  | ≤ 4.74 | 91.4 |  | c1cc(-c2nnc(NCc3cncs3)o2)ccn1
15 | 55.2 |  |  | ≤ 4.74 | 75 |  | CN(C)c1ccc(-c2ccc(C(=O)NCCN3CCCC3=O)cc2)nn1
16 | 0.886 |  |  | 325 | 1410 |  | Cc1cccc2cc(C(=O)NCCCn3nnc4ccccc43)n(C)c12
17 | 0.706 |  |  | 170 | 2160 | 11.9 (≈ 35.5 µM) | O=C(NC[C@@H]1CCN(c2ccccc2)C1)N1CCc2ccccc2C1
18 | 0.662 |  |  | 12.5 | 147 |  | Cn1nc(CNC(=O)C2CCC2)c2ccccc21
19 | 0.816 |  |  | 93.3 | 1960 | 54.9 (≈ 169 µM) | Fc1cccc(OC2CCN(Cc3nc4ccccc4[nH]3)CC2)c1
20 |  |  |  | ≤ 4.74 | ≤ 10.7 |  | Cc1cccc(CNC(=O)Cn2c(=O)oc3cccnc32)c1
21 |  |  |  | ≤ 4.74 | 109 | 40.1 (≈ 157 µM) | Cc1cc(C(=O)NCC2(c3ccccc3)CC2)on1

Row | MDR1-MDCK efflux ratio | fraction unbound, human plasma | fraction unbound, rat plasma | intrinsic clearance, human liver microsomes [mL/min/kg] | intrinsic clearance, rat liver microsomes [mL/min/kg] | aqueous solubility [µg/mL] | SMILES
22 | 7.15 |  |  | 15.3 | 376 | 45.2 (≈ 129 µM) | Cc1ccccc1COC1CN(C(=O)Cn2c(=O)[nH]c3ccccc32)C1
23 |  |  |  |  |  | 5.67 (≈ 28 µM) | Cc1nnnn1CCCc1ccccc1
24 | 3.75 |  |  | 8.9 | 61.5 |  | Cc1ncsc1CNc1nnc(-c2ccncc2)o1
25 | 4.4 |  |  | 44.2 | 328 | 28.9 (≈ 94.5 µM) | Cc1cc(N(C)Cc2ccc(N)nc2)nc(-c2ccncc2)n1
26 |  |  |  |  |  | 0.19 (≈ 0.72 µM) | Clc1ccc2oc(/C=C/c3csnn3)nc2c1
27 | 83.5 |  |  | 559 | 1320 | 49 (≈ 112 µM) | c1csc(-c2csc3nc(CN4CCOCC4)nc(N4CCc5[nH]ncc5C4)c23)c1
28 | 3.85 |  |  | 5.88 | 198 | 45.8 (≈ 115 µM) | COc1cc(Nc2cc(-c3cccc(C#N)c3)ccn2)ccc1N1CCN(C)CC1
29 | 28.4 |  |  | 7.01 | 124 | 51.4 (≈ 127 µM) | CCOC(=O)Nc1cc(-c2ccc(C)c(NS(C)(=O)=O)c2)nn2c(C)nnc12
30 | 0.648 |  |  | 9.78 | 69.7 | 30.7 (≈ 135 µM) | CN(Cc1cccnc1)Cc1ccc(C#N)o1
31 |  |  |  |  |  | 0.25 (≈ 0.72 µM) | COc1ccc(-c2onc(C)c2-c2cnn(-c3ccccc3)c2)c(O)c1
32 |  |  |  | 22 | 356 |  | COc1ccccc1N1CCN(CCNC(=O)c2ccc(F)cc2)CC1
33 | 0.855 |  |  | ≤ 4.74 | 12.4 | 28.4 (≈ 130 µM) | C#CCNC(=O)c1cc(C(C)C)nn1CC
34 | 0.599 |  |  | 15 | 367 | 17 (≈ 63.6 µM) | O[C@@H]1CO[C@H]2C[C@@H]1Nc1c(-c3ccccc3)cccc12
35 | 2.28 |  |  | 13.2 | 107 | 50.9 (≈ 139 µM) | CN(CCN1CCOC1=O)C(=O)c1cc2cc(Br)ccc2o1
36 | 2.65 |  |  | 34.8 | 533 |  | CCc1ccccc1S(=O)(=O)NCCc1cn[nH]c1
37 | 6.82 |  |  | ≤ 4.74 | ≤ 10.7 | 48.9 (≈ 154 µM) | Cc1c(C(=O)NC2CCN(CC3CCCCC3)CC2)cnn1C
38 | 3.62 | 0.0738 | 0.0392 | ≤ 4.74 | 25.7 | 17.7 (≈ 42.4 µM) | CCc1nc(C)cn2nc(-c3cc(=O)n4cc(C5CCN(C)CC5)cc(C)c4n3)cc12
39 | 0.627 |  |  | ≤ 4.74 | 70.4 | 53 (≈ 228 µM) | CON(C)C(=O)Cc1c(C)[nH]c2ccccc12
40 | 17.2 |  |  | ≤ 4.74 | ≤ 10.7 | 33.7 (≈ 114 µM) | CC(=O)Nc1ccc(C(=O)N2CCc3ncncc3C2)cc1
41 | 4.09 |  |  | ≤ 4.74 | ≤ 10.7 | 37.4 (≈ 158 µM) | O=C1N=C2C=CC=CN2C12Cc1ccccc1C2

Row | SMILES | MDR1-MDCK efflux ratio | fraction unbound, human plasma | fraction unbound, rat plasma | intrinsic clearance, human liver microsomes [mL/min/kg] | intrinsic clearance, rat liver microsomes [mL/min/kg] | aqueous solubility [µg/mL]
42 | Cc1ccc(CNc2cncc(-n3nc(C)cc3C)n2)cn1 |  |  |  | 23.4 | 252 | 
